Data: US4804502A, “Vitamin D compounds” (priority 1988, dated 1989)

Columns and labels:
[1] = molecular target: T1, 1,25-(OH)2 D3 receptors (chick intestine) (Gallus gallus, UniProt O42392); assay: Competitive Binding to 1,25-(OH)2 D3 Intestine Receptors, chick; settings: a/b×100 from amounts displacing 50% of 1,25-(OH)2[3H]D3
T1 construct: receptor prepared from intestine of chick, rat and calf; from tissue; host or cells: chick proximal small-intestine mucosa, cytosol, 35% ammonium sulphate precipitate
T1 sequence (O42392 1-451): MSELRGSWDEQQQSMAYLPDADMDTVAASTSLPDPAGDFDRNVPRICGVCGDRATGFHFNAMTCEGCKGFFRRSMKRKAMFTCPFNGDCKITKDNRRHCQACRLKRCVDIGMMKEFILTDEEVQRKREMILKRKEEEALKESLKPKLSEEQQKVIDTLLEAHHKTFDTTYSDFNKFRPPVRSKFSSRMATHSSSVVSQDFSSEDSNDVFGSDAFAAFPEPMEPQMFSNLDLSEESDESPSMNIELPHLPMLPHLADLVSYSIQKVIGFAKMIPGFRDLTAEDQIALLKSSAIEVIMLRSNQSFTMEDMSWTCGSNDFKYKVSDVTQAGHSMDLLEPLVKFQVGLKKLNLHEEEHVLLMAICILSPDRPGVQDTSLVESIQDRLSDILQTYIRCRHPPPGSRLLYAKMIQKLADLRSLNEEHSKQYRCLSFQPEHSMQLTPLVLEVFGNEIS
Experimental: The ability of vitamin D3 metabolites to compete for 1,25-(OH)[^3 H]D3 receptor binding sites was evaluated with receptor prepared from intestine of chick, rat and calf. […] Mucosa was collected and washed three times with 10 volumes of cold KTED buffer. The washed mucosa was homogenized in KTED buffer (20% w/v) using a Polytron Pt20 tissue disruptor. Cytosol was prepared by centrifugation of the homogenized mucosa at 300,000×g for 1 hour. […] The ammonium sulphate treated cytosol was centrifuged at 20,000×g for 10 minutes. The supernatant was discarded and the pellet lyophilized and stored at […] Prior to binding assay the pellet was resuspended in cold binding assay buffer containing 150 mM KCl, 50 mM NaPO4, 1.5 mM EDTA and 5 mM dithiothreitol.

[2] = test system: intestinal calcium absorption (duodenum); assay: Stimulation of Intestinal Calcium Absorption in Rat (intestinal 45Ca transport, everted gut sac); settings: intrajugular, 18 h
[3] = test system: HL-60 promyelocytic leukemia cells; assay: Induction of differentiation of HL-60 cells (NBT reduction); format: cell-based, human; settings: 8 days; for EC50: Homo sapiens, HL-60, 192 h, from dose response curves, read-out: ED50 (concentration which induced differentiation of 50% of the cells)
Experimental: (§1) Inhibition of Cell Proliferation and Induction of Cell Differentiation
(§2) Cultures of HL-60 promyelocytic leukemia cells were established in the absence (control) and presence of various concentrations of test compounds. After an 8-day incubation period, the cultures were evaluated for proliferation of tumor cells, cell viability, and cellular differentiation. Proliferation was assessed by directly enumerating the increased number of tumor cells resulting from cell division during incubation. Viability was assessed by dye exclusion technique to learn whether any of the compounds were lethal to the cultured HL-60 cells. Cellular differentiation was evaluated by determining the number of cells which had acquired the enzymes necessary to support a respiratory burst, a characteristic of mature macrophages and granulocytes.
(§3) Tissue culture medium used in these experiments was RPMI-1640 supplemented to 10% v/v with heat-inactivated fetal bovine serum and to an additional 1.6 mM with L-glutamine.
(§4) Test compounds were dissolved in sufficient ethanol to yield stock solutions of 1×10^-2 or 1×10^-3 molar. Reduced lighting was used when working with compounds and stock solutions were stored in the dark at -20° C. in an argon atmosphere. Compounds were diluted in tissue culture medium and added to flasks containing HL-60 cells to achieve the final concentration described in each test.
(§5) The HL-60 tumor cell line was originally derived from a patient with promyelocytic leukemia and was obtained from the American Type Culture Collection. The cells were maintained in liquid culture by serial passage twice weekly in tissue culture medium. […] In any test, three replicate flasks were incubated without compound (control) or in the presence of varying concentrations of test compound. Ethanol, used as the vehicle, was kept constant in all dilutions in each test and had no effect on cell proliferation, viability or cell differentiation at the concentrations used (≤0.1%). After 8 days of incubation at 37° in a humidified atmosphere of 5% CO2 in air, cultures were evaluated for tumor cell proliferation, viability and differentiation.
Quantitation of differentiated cells was done by the biochemical method of nitroblue tetrazolum (NBT) reduction. One million HL-60 cells were pooled from replicate cultures, centrifuged at 220×g for 10 minutes, and resuspended in 1 ml of Ca^++ -Mg^++ -deficient phosphate buffered saline prepared by supplementing Ca^++ -Mg^++ -free phosphate buffered saline (PBS) to 20% v/v with heat-inactivated fetal bovine serum). Nitroblue tetrazolium was dissolved at 0.5 mg per ml in Ca^++ -Mg^++ -free PBS with gentle heating and frequent mixing. A stock solution of 1 mg tetradecanoyl phorbol acetate (TPA) per ml in ethanol, stored at -20°, was diluted 100-fold with Ca^++ -Mg^++ -free PBS to prepare a working solution. The test was done by adding 1 ml of NBT solution and 0.02 ml of the working TPA solution to the HL-60 cells. After mixing, the tubes were incubated in a 37° water bath for 25 minutes then transferred to ice. Undifferentiated and differentiated cells present in any sample were determined microscopically by surveying a minimum of 300 cells per sample. Cells without pigmented granules (clear cells) were judged to be undifferentiated while those containing greater than 3 blue-black formazan granules were scored as differentiated. Generally, differentiated cells were intensely pigmented clearly indicating the enzymatic conversion of NBT to formazan. Results are expressed as the percentage of differentiated cells present in any sample as calculated according to the formula: [formula] The results are also expressed as the concentration of compound which induced differentiation of 50% of the cells (ED50).

[4] = test system: HL-60 promyelocytic leukemia cells; assay: Inhibition of proliferation of HL-60 cells; format: cell-based; settings: Homo sapiens, HL-60, 192 h, 8 days; for inhibition at 0.001 µM: 0.1 × 10^-8 M; for inhibition at 0.01 µM: 1 × 10^-8 M; for inhibition at 0.1 µM: 10 × 10^-8 M; for IC50: from dose response curves, read-out: ID50 (concentration which reduced the cell number by 50%)
Experimental: as §1, §2, §3, §4, §5
Quantitation of proliferation was done by enumerating the number of HL-60 cells in each individual flask (3 flasks per experimental point) using an Elzone electronic particle counter. Results are shown as the percent reduction of cell number calculated for each concentration tested according to the formula: [formula] The results are also expressed as the concentration which reduced the cell number by 50% (ID50).

[5] = read-out: % Reduction in cell number

Row | Competitive Binding to 1,25-(OH)2 D3 Receptors - % of 1,25-(OH)2 D3 Effect, chick intestine [1] | EC50 [3] | IC50 [4] | Structure (SMILES) | % of 1,25-(OH)2 D3 Effect in Rat, intestinal calcium absorption ([2]; 12.5 ng/rat) | % Differentiated cells ([3]; 0.01 × 10^-8 M) | % Differentiated cells ([3]; 0.1 × 10^-8 M) | % Differentiated cells ([3]; 1 × 10^-8 M) | % Differentiated cells ([3]; 10 × 10^-8 M) | inhibition at 0.0001 µM ([4]; 0.01 × 10^-8 M, read-out: % Reduction in cell number) | inhibition at 0.001 µM [4, 5] | inhibition at 0.01 µM [4, 5] | inhibition at 0.1 µM [4, 5] | % of 1,25-(OH)2 D3 Effect in Rat, intestinal calcium absorption ([2]; 15.5 ng/rat)
1 | 47% | 2 nM | 2 nM | C=C1/C(=C\C=C2/CCC[C@]3(C)[C@@H]([C@H](C)CC#CC(O)(C(F)(F)F)C(F)(F)F)CC[C@@H]23)C[C@@H](O)C[C@@H]1O [Compound B] | 124% | 13% | 29% | 95% | 98% | 15% | 31% | 85% | 89% | 
2 | 60% | 9 nM | 6 nM | C=C1/C(=C\C=C2/CCC[C@]3(C)[C@@H]([C@H](C)CC#CC(C)(C)O)CC[C@@H]23)C[C@@H](O)C[C@@H]1O [Compound A, 1α,25-dihydroxy-23-yne-cholecalciferol] |  |  | 15% | 54% | 98% |  | 30% | 67% | 85% | 95%
